According to patent US11746383B2, “Biomarker DLEC1 for cancer” (The Chinese University of Hong Kong, priority 2018, dated 2023):

Tests used:
[1] = tested on: DLEC1 expression in ESCC, lung and NPC carcinoma cell lines; test: Demethylation treatment (Aza, TSA) and DLEC1 expression / promoter methylation analysis (RT-PCR, MSP, BGS); type: cell-based, human
Text: A panel of ESCC, NPC and lung carcinoma cell lines was used. Immortalized normal esophageal epithelial (NE1, NE3, Het-1A), normal nasopharyngeal epithelial (NP69) and HEK293T cell lines were used. Cell lines were maintained in RPMI or DMEM medium (Gibco BRL, Rockville, Md.) with 10% fetal bovine serum. Human normal adult tissue RNA samples were obtained commercially (Stratagene, La Jolla, Calif., or Millipore Chemicon, Billerica, Mass.). Primary carcinoma tissues of Chinese ESCC, NPC and lung, some with matched normal samples, have been descried before. Cell lines were treated with 5 μM of 5-Aza-2′-deoxycytidine (Aza) (Sigma, St. Louis, Mo.) for 3 days, or even followed with ˜16 h additional TSA (final concentration […]) treatment as described. MSP and BGS were conducted according to previous reports. MSP was conducted for 40 cycles at the annealing temperatures of 60° C. for M and 58° C. for U. Amplified products from BGS primer set were cloned into pCR4-Topo vector (Invitrogen, Carlsbad, Calif.), with 6-8 colonies randomly chosen and sequenced. RNA was reverse-transcribed using MuLV reverse transcriptase (GeneAmp RNA PCR kit, Applied Biosystems). RT-PCR was performed as described previously using GAPDH as a control.

DLEC1 CGI = test: ChIP assay, acetylated histone H4; type: cell-based, human; conditions: carcinoma cells following TSA treatment
Protocol: ChIP assay was performed as described previously. Antibody to acetylated histone H4 (Upstate Biotechnology) was used to precipitate cross-linked chromatin. ACTIN was employed as a control for normalization of each PCR product.

[2] = tested on: ESCC, lung and NPC carcinoma cells; test: Monolayer colony formation assay; type: cell-based, human; conditions: ectopically expressed DLEC1 in ESCC
Protocol: (§1) Four pairs of primers (Table 6) were used to generate 4 DLEC1 fragments based on published DLEC1 sequence (GenBank accession number AB020522). Reverse transcription was carried out using normal testis RNA as template (BD Biosciences, Palo Alto, Calif.). The 4 product fragments were ligated to generate pcDNA3.1(+)-Flag-DLEC1 and pCMV-Flag-DLEC1-V5 expression plasmids. The mutation for three YXXQ motifs of DLEC1 (DLEC1-3Y, YXXQ-GGGG (“GGGG” disclosed as SEQ ID NO: 7)) was introduced by PCR into pCMV-Flag-DLEC1-V5 vector, with sequence confirmed. STAT3C expression plasmid was a gift from Prof. Honglin Chen (University of Hong Kong). Cells were transfected with lipofectamine 3000 (Invitrogen, Carlsbad, Calif.), and the cells were cultured in RPMI 1640 supplemented with 10% FBS and selected in 400 μg/mL of G418 for 20-30 days to establish some stable cell pools, with confirmed DLEC1 expression.
(§2) Colony formation assay was conducted as previously described. All experiments were performed in triplicate wells 3 times. To monitor cell proliferation, 1000 cells were plated in a 96-well plate and incubated at 37° C. in selective media for 3-(4,5-dimethylthiazolyl-2)-2,5-diphenyltetrazolium bromide (MTT) assay.

[3] = tested on: multiple carcinoma cells stably-expressing DLEC1; test: Cell proliferation (MTT) assay; type: cell-based, human
Protocol: as §1, §2

[4] = tested on: KYSE150, H1299 and HONE1 cells; test: Cell cycle analysis by flow cytometry (propidium iodide); type: cell-based, human; conditions: DLEC1-expressing KYSE150, H1299 and HONE1 cells
Text: (§3) Flow cytometry analysis of cell cycle and apoptosis was described previously. Cells were stained with propidium iodide (PI) and Annexin V-FITC (BD Biosciences, Bedford, Mass.), and sorted by Accuri C6 (BD Biosciences, Bedford, Mass.) according to the manufacturer's protocol.

carcinoma cells [5] = test: Cell apoptosis assay (Annexin V-FITC/PI flow cytometry, Western blot of apoptosis markers); type: cell-based, human
Protocol: as §3
(§4) Human IL-6 (PF01229) (Peprotech, Rocky Hill, N.J.) was used. Western blot and IP experiments were performed according to previous protocols.

[6] = tested on: ESCC, lung and NPC carcinoma cells; test: Transwell migration and Matrigel invasion assays; type: cell-based, human; conditions: transwell assay, ectopic expression of DLEC1
Protocol: Transwell migration and invasion assays were performed as previously described. The numbers of migrated or invaded cells were observed and counted using a light microscope. Five fields were randomly chosen and the numbers of penetrated cells were counted.

carcinoma cells [7] = test: Scratch wound-healing assay; type: cell-based, human; conditions: confluent monolayer, versus mock cells
Protocol: Cell motility was assessed using a scratch wound-healing assay. Cells transient transfected with DLEC1 were cultured in 6-well plates until confluent. A single scratch was produced in the cell layer using a sterile tip. After incubation for 24 and 48 hours, cells were photographed under a phase contrast microscope. The experiments were performed in triplicates.

carcinoma cells [8] = test: EMT, actin stress fiber and stemness marker analysis (immunofluorescence, Western blot, qPCR); type: cell-based, human
Protocol: RNA was reverse-transcribed using MuLV reverse transcriptase (GeneAmp RNA PCR kit, Applied Biosystems). RT-PCR was performed as described previously using GAPDH as a control.
Cells grown on coverslips were stained by indirect immunofluorescence as described previously. Briefly, cells were incubated with primary antibodies against DLEC1, E-cadherin, or Vimentin and then incubated with Alexa Fluor 594-conjugated secondary antibody against mouse IgG (A11062) (Invitrogen Molecular Probes, Carlsbad, Calif.), or FITC-conjugated secondary antibody against rabbit IgG (F0205) (DAKO, Denmark). To analyze the effects of DLEC1 on actin stress fiber formation, cells were serum starved for 24 h before incubation in medium-containing 5% fetal bovine serum. After 1 h, cells were fixed and stained by Rhodamine-labeled phalloidin (Invitrogen Molecular Probes). Cells were then counterstained with DAPI and imaged with an Olympus BX51 microscope (Olympus Corporation, Tokyo, Japan).

[9] = tested on: NF-κB, AP-1, STATs-bs, TopFlash, SRE and PAI-1 reporters; test: Dual-luciferase reporter assay of signaling pathways; type: cell-based, human; conditions: carcinoma cells (ESCC, lung, NPC) or immortalized normal epithelial cells (NP69)
Protocol: The promoter activities were determined by luciferase reporter assays. Luciferase reporters of several key signaling pathways, including NF-κB-luc, AP-1-luc, SRE-luc, STATs-bs-luc, TopFlash-luc, and PAI-luc were used to examine signaling pathway regulated by DLEC1 Cells were transiently co-transfected with DLEC1 expression vector and phRL-TK […]. […] After 48 h, cells were lysed and luciferase activities were measured using Dual-Luciferase® Reporter Assay System (Promega, Madison, Wis.). To normalize transfection efficiency, phRL-TK luciferase activities were measured as an internal control. At least three independent experiments were performed, with each repeated in triplicates.

[10] = tested on: p-ERK, p-AKT, p-STAT3, active β-catenin; test: Western blot of signaling protein phosphorylation; type: cell-based, human
Protocol: as §4

STAT3 = molecular target: T1, STAT3 (Homo sapiens, UniProt P40763); test: Co-immunoprecipitation with STAT3; type: binding
T1 construct: Association of endogenous DLEC1 and STAT3 proteins in HEK293T cells; endogenous in cells; host or cells: HEK293T
T1 sequence (P40763 whole entry): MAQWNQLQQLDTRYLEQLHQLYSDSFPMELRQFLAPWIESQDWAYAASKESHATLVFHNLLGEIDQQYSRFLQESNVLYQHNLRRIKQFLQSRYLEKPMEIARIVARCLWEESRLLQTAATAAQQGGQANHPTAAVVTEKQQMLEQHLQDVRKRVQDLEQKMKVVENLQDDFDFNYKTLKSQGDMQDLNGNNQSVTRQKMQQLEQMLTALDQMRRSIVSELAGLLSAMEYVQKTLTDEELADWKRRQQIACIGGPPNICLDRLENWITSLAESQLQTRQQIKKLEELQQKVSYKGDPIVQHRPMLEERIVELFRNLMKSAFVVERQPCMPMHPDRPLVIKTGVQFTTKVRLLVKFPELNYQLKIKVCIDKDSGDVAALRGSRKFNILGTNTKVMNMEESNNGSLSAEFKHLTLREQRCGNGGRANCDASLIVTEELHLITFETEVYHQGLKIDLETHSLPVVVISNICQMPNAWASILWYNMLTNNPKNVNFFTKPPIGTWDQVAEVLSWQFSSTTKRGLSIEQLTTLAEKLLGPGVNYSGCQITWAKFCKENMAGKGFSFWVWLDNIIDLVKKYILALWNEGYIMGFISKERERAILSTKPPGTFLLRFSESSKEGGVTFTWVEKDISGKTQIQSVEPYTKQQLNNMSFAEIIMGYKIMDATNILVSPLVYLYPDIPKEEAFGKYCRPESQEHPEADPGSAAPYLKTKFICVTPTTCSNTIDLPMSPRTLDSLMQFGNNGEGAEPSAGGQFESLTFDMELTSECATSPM
Protocol: as §4

JAK2 = molecular target: T2, JAK2 (Homo sapiens, UniProt O60674); test: Co-immunoprecipitation with JAK2; type: binding
T2 construct: endogenous in cells; host or cells: HEK293T
T2 sequence (O60674 whole entry): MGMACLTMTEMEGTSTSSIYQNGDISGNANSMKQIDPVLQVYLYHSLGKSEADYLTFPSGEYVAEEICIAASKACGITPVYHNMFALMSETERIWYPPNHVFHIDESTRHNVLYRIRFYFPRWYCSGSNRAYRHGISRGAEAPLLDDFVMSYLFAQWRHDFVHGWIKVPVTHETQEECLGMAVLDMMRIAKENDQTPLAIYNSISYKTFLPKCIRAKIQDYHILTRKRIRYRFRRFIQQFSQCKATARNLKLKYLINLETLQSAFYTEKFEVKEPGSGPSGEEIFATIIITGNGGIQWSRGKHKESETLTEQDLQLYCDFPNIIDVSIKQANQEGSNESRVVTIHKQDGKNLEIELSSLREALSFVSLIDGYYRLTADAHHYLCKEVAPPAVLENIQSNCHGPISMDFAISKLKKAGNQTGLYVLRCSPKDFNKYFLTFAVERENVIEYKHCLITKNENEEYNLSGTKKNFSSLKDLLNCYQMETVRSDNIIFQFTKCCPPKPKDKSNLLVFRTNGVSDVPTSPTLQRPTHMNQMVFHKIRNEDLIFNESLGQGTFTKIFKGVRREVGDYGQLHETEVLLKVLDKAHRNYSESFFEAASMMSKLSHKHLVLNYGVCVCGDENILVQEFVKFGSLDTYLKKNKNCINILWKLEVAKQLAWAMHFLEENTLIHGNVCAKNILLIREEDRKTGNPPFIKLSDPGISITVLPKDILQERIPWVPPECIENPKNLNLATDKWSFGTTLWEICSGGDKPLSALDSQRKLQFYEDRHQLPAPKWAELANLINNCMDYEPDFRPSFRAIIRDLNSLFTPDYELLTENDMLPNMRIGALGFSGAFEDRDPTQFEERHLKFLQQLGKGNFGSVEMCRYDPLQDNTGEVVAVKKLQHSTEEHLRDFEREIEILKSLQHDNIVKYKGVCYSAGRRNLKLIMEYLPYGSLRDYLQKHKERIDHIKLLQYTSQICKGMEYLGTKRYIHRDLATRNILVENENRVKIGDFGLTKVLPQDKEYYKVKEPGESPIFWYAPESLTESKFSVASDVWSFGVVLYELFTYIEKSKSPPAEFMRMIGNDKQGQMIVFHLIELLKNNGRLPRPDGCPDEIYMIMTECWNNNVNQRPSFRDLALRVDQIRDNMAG
Protocol: as §4

Nc1ncn([C@H]2C[C@H](O)[C@@H](CO)O2)c(=O)n1 [Aza, 5-aza-2′-deoxycytidine]
Expression of DLEC1 ([1]; NPC cells): restored or increased | DLEC1 expression ([1]; cell lines of ESCC, lung and NPC with silenced DLEC1, 5 μM Aza for 3 days, or followed with ~16 h TSA): increased

CC(/C=C/C(=O)NO)=C\[C@@H](C)C(=O)c1ccc(N(C)C)cc1 [TSA, Trichostatin A]
DLEC1 expression ([1]; TSA-treated lung carcinoma cell line H1299): moderately induced | binding of acetylated histone 4 to the DLEC1 CGI (DLEC1 CGI): increased

DLEC1: 1755-amino acid human DLEC1 protein (SEQ ID NO:4), ectopically expressed from pcDNA3.1(+)-Flag-DLEC1 / pCMV-Flag-DLEC1-V5 plasmids
colony numbers and sizes compared to controls [2]: 10-40% | growth rates [3]: slower growth rates | cell cycle distribution [4]: increased G2-M phase cells and decreased S phase cells | apoptosis markers (cleaved caspase-3 and PARP) (carcinoma cells [5]; Western blot): increase | apoptotic cells (carcinoma cells [5]; after transfection with DLEC1-expression vector): significantly increased | cell invasion [6]: dramatically suppressed | cell migration [6]: dramatically suppressed | closing of artificial wounds (carcinoma cells [7]): less proficiency in closing artificial wounds than mock cells | stem cell markers (STAT3, CD44, ABCG2, TWIST and KLF4) (carcinoma cells [8]; ESCC and lung carcinoma cells, qPCR): downregulated | E-cadherin, vimentin and metastasis markers (MMP7, Twist) (carcinoma cells [8]; Western blot): Upregulated E-cadherin and downregulated vimentin and metastasis markers (MMP7, Twist) | formation of actin stress fibers (carcinoma cells [8]; carcinoma cells): disassembled | EMT markers E-cadherin and vimentin (carcinoma cells [8]; immunofluorescence): gain of epithelial marker E-cadherin and loss of mesenchymal marker vimentin | reporter activities of NF-κB, AP-1, STATs-bs, TopFlash, SRE and PAI-1 elements-regulated promoters [9]: markedly repressed | levels of p-ERK (Thr202/Tyr204), p-AKT (Ser473), p-STAT3 (Tyr705 and Ser727) and active β-catenin ([10]; DLEC1-expressing carcinoma cells): significantly decreased | IL-6 treatment-enhanced STAT3 phosphorylation levels ([10]; IL-6 10 ng/mL for 30 min, KYSE150 and H1299 cells): suppress | p-STAT3 levels at both Tyr705 and Ser727 sites ([10]; STAT3C-transfected carcinoma cells): greatly suppressed | p-STAT3 (Tyr705) ([10]; increasing doses of DLEC1-expressing plasmids, dose-dependent): Marked decrease | interaction of DLEC1 with STAT3 (STAT3; IL-6 stimulation): increased | interaction with STAT3/p-STAT3 (Tyr705) (STAT3; endogenous proteins, HEK293T cells, immunoprecipitation): strong interaction | interaction of STAT3 with JAK2 (JAK2; IL-6 dependent manner): inhibited | interaction with JAK2 and p-STAT3 (Tyr705) (JAK2; IL-6 stimulation): decreasing | co-precipitation of JAK2 (JAK2; endogenous proteins, HEK293T cells): relatively weaker co-precipitation
